Results reported in patent US20080064667A1, “OXAZOLE DERIVATIVES OF TETRACYCLINES” (Wyeth, priority 2003, published 2008).
In brackets after ≈: the same amount, converted by molar mass.

Legend:
Assay in all cases: MIC, broth microdilution (NCCLS)
Assay type in all cases: cell-based
[1] = system: C. albicans GC3066 ATCC (Control); conditions: Candida albicans, Mueller-Hinton II broth, 18-22 hours at 35° C.
E. coli GC1073 (tet(B)) = conditions: Escherichia coli
Summary of the method: (§1)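 MICs determined in cation-standard Mueller-Hinton II broth with serial drug dilutions, each strain inoculated to 10^5 CFU/ml. Incubation: 35 °C, ambient air, 18-22 h, following NCCLS broth microdilution guidance.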

[2] = system: E. coli GC2203 (ATCC Control); conditions: Escherichia coli, Mueller-Hinton II broth, 18-22 hours at 35° C.
Summary of the method: as §1

E. coli GC2270 (tet(M)) = conditions: Escherichia coli
Summary of the method: as §1

[3] = system: E. coli GC4559 (parent GC4560); conditions: Escherichia coli, Mueller-Hinton II broth, 18-22 hours at 35° C.
Summary of the method: as §1

[4] = system: E. coli GC4560 (IMP mutant); conditions: Escherichia coli
Summary of the method: as §1

[5] = system: E. faecalis GC2242 (Van-resistant); conditions: Enterococcus faecalis, Mueller-Hinton II broth, 18-22 hours at 35° C.
Summary of the method: as §1

[6] = system: E. faecalis GC2267 (tet(L) + (M) + (S)); conditions: Enterococcus faecalis
Summary of the method: as §1

[7] = system: E. faecalis GC4555 (ATCC Control); conditions: Enterococcus faecalis, Mueller-Hinton II broth, 18-22 hours at 35° C.
Summary of the method: as §1

[8] = system: H. influenzae<> GC6896 (ATCC Control); conditions: Haemophilus influenzae, Mueller-Hinton II broth, 18-22 hours at 35° C.
Summary of the method: as §1

[9] = system: M. catarrhalis* GC6907 (Clinical); conditions: Moraxella catarrhalis, Mueller-Hinton II broth, 18-22 hours at 35° C.
Summary of the method: as §1

[10] = system: S. aureus GC1079 (tet(K)); conditions: Staphylococcus aureus, Mueller-Hinton II broth, 18-22 hours at 35° C.
Summary of the method: as §1

[11] = system: S. aureus GC1131 (Clinical); conditions: Staphylococcus aureus, Mueller-Hinton II broth, 18-22 hours at 35° C.
Summary of the method: as §1

[12] = system: S. aureus GC2216 (ATCC Control); conditions: Staphylococcus aureus, Mueller-Hinton II broth, 18-22 hours at 35° C.
Summary of the method: as §1

[13] = system: S. aureus GC4536 (Smith MP -In Vivo); conditions: Staphylococcus aureus, Mueller-Hinton II broth, 18-22 hours at 35° C.
Summary of the method: as §1

[14] = system: S. aureus GC6466 (tet(M)); conditions: Staphylococcus aureus, Mueller-Hinton II broth, 18-22 hours at 35° C.
Summary of the method: as §1

[15] = system: S. aureus GC6467 (tet(M) + (K)); conditions: Staphylococcus aureus
Summary of the method: as §1

[16] = system: S. pneumoniae* GC1894 (Clinical); conditions: Streptococcus pneumoniae, Mueller-Hinton II broth, 18-22 hours at 35° C.
Summary of the method: as §1

[17] = system: S. pneumoniae* GC4465 (Clinical); conditions: Streptococcus pneumoniae, Mueller-Hinton II broth, 18-22 hours at 35° C.
Summary of the method: as §1

[18] = system: S. pyogenes* GC4563 (Clinical); conditions: Streptococcus pyogenes, Mueller-Hinton II broth, 18-22 hours at 35° C.
Summary of the method: as §1

Structure (SMILES): CN(C)c1cc2nc(CCl)oc2c2c1C[C@H]1C[C@H]3[C@H](N(C)C)C(O)=C(C(N)=O)C(=O)[C@@]3(O)C(O)=C1C2=O [Example 35, (6aR,7aS,8S,11aS)-2-(chloromethyl)-5,8-bis(dimethylamino)-9,11a,12-trihydroxy-11,13-dioxo-6,6a,7,7a,8,11,11a,13-octahydrotetraceno[2,1-d][1,3]oxazole-10-carboxamide]
- MIC [1]: > 64 µg/mL
- MIC (E. coli GC1073 (tet(B))): 32 µg/mL (≈ 60.3 µM)
- MIC [2]: 4 µg/mL (≈ 7.53 µM)
- MIC (E. coli GC2270 (tet(M))): 16 µg/mL (≈ 30.1 µM)
- MIC [3]: 8 µg/mL (≈ 15.1 µM)
- MIC [4]: 0.5 µg/mL (≈ 0.942 µM)
- MIC [5]: 1 µg/mL (≈ 1.88 µM)
- MIC [6]: 4 µg/mL (≈ 7.53 µM)
- MIC [7]: 1 µg/mL (≈ 1.88 µM)
- MIC [8]: 2 µg/mL (≈ 3.77 µM)
- MIC [9]: 0.5 µg/mL (≈ 0.942 µM)
- MIC [10]: 4 µg/mL (≈ 7.53 µM)
- MIC [11]: 0.5 µg/mL (≈ 0.942 µM)
- MIC [12]: 0.5 µg/mL (≈ 0.942 µM)
- MIC [13]: 1 µg/mL (≈ 1.88 µM)
- MIC [14]: 1 µg/mL (≈ 1.88 µM)
- MIC [15]: 8 µg/mL (≈ 15.1 µM)
- MIC [16]: 0.25 µg/mL (≈ 0.471 µM)
- MIC [17]: 0.5 µg/mL (≈ 0.942 µM)
- MIC [18]: 0.25 µg/mL (≈ 0.471 µM)

Structure (SMILES): CCCCCCOc1ccc(-c2nc3cc(N(C)C)c4c(c3o2)C(=O)C2=C(O)[C@]3(O)C(=O)C(C(N)=O)=C(O)[C@@H](N(C)C)[C@@H]3C[C@@H]2C4)cc1 [Example 32, (6aR,7aS,8S,11aS)-5,8-bis(dimethylamino)-2-[4-(hexyloxy)phenyl]-9,11a,12-trihydroxy-11,13-dioxo-6,6a,7,7a,8,11,11a,13-octahydrotetraceno[2,1-d][1,3]oxazole-10-carboxamide]
- MIC [1]: > 64 µg/mL
- MIC (E. coli GC1073 (tet(B))): > 64 µg/mL
- MIC [2]: > 64 µg/mL
- MIC (E. coli GC2270 (tet(M))): > 64 µg/mL
- MIC [3]: > 64 µg/mL
- MIC [4]: > 64 µg/mL
- MIC [5]: 64 µg/mL (≈ 97.2 µM)
- MIC [6]: > 64 µg/mL
- MIC [7]: 64 µg/mL (≈ 97.2 µM)
- MIC [8]: > 64 µg/mL
- MIC [9]: 32 µg/mL (≈ 48.6 µM)
- MIC [10]: > 64 µg/mL
- MIC [11]: > 64 µg/mL
- MIC [12]: > 64 µg/mL
- MIC [13]: > 64 µg/mL
- MIC [14]: > 64 µg/mL
- MIC [15]: > 64 µg/mL
- MIC [16]: 8 µg/mL (≈ 12.1 µM)
- MIC [17]: 16 µg/mL (≈ 24.3 µM)
- MIC [18]: 16 µg/mL (≈ 24.3 µM)

Structure (SMILES): CN(C)c1cc2nc(CN3CCCC3)oc2c2c1C[C@H]1C[C@H]3[C@H](N(C)C)C(O)=C(C(N)=O)C(=O)[C@@]3(O)C(O)=C1C2=O [Example 37, (6aR,7aS,8S,11aS)-5,8-bis(dimethylamino)-9,11a,12-trihydroxy-11,13-dioxo-2-(pyrrolidin-1-ylmethyl)-6,6a,7,7a,8,11,11a,13-octahydrotetraceno[2,1-d][1,3]oxazole-10-carboxamide]
- MIC [1]: > 64 µg/mL
- MIC [2]: 2 µg/mL (≈ 3.54 µM)
- MIC (E. coli GC2270 (tet(M))): 4 µg/mL (≈ 7.07 µM)
- MIC [3]: 2 µg/mL (≈ 3.54 µM)
- MIC [4]: 1 µg/mL (≈ 1.77 µM)
- MIC [5]: 2 µg/mL (≈ 3.54 µM)
- MIC [6]: 4 µg/mL (≈ 7.07 µM)
- MIC [7]: 2 µg/mL (≈ 3.54 µM)
- MIC [8]: 4 µg/mL (≈ 7.07 µM)
- MIC [9]: 1 µg/mL (≈ 1.77 µM)
- MIC [10]: 4 µg/mL (≈ 7.07 µM)
- MIC [11]: 4 µg/mL (≈ 7.07 µM)
- MIC [12]: 4 µg/mL (≈ 7.07 µM)
- MIC [13]: 4 µg/mL (≈ 7.07 µM)
- MIC [14]: 4 µg/mL (≈ 7.07 µM)
- MIC [15]: 8 µg/mL (≈ 14.1 µM)
- MIC [16]: 1 µg/mL (≈ 1.77 µM)
- MIC [17]: 1 µg/mL (≈ 1.77 µM)
- MIC [18]: 1 µg/mL (≈ 1.77 µM)
